Each block holds one compound with its values, some of them ahead of it.
Legend:
KIRK 2 channel = target: T1, KIRK 2 channel (Homo sapiens, UniProt P78508); experiment: Two-microelectrode voltage-clamp of Xenopus oocytes injected with KIRK 2 cRNA; type: cell-based; conditions: for inhibition of KIRK 2 current: Xenopus oocytes expressing KIRK 2, Ba^2+ applied at 0.03 μM to 10 mM (n=8), Cs^+ n=6, data not shown
T1 construct: primers that flank the open-reading frame of KIRK-2 were used to PCR amplify this region of the genomic clone; expressed in transfected cells; host or cells: Xenopus laevis oocytes injected with polyadenylated KIRK 2 cRNA (from pSPORT/KIRK-2)
T1 sequence (P78508 1-379): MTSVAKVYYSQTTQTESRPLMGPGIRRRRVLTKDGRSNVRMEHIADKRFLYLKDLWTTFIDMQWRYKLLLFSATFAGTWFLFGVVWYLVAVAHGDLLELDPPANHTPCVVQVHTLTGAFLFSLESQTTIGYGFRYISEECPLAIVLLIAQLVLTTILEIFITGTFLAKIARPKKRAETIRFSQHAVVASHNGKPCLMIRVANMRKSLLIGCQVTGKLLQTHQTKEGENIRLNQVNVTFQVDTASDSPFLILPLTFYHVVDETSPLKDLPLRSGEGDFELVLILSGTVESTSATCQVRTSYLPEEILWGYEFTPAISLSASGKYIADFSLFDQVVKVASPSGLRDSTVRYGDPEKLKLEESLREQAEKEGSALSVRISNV
Procedure: Oocytes were collected under tricaine (3-aminobenzoic acid ethyl ester, 0.17%; Sigma, St. Louis, Mo.) and cold-induced anesthesia from adult African clawed frogs, Xenopus laevis (Nasco, Ft. Atkinson, Wis.), and defolliculated by blunt dissection in Ca^2+ free ND-96 following 40 minutes incubation in 2 mg/ml collagenase (Type II; Sigma, St. Louis, Mo.). ND-96 consisted of 96 mM NaCl, 2 mM KCl, 1 mM MgCl2, 0.3 mM CaCl2, 5 mM HEPES, pH 7.6.The following day, a glass injection pipette manually broken to ~15 μm tip diameter was used to inject oocytes with […] of polyadenylated cRNA dissolved in water at 15, 30 or 100 ng/μl resulting in injection of 0.6, 1.2, or 4 ng of cRNA. Prior to recordings, oocytes were maintained 2-7 days at 20° C. in ND-96 supplemented with gentamycin ([…]; Bio-Whittaker, Walkersville, Md.) and sodium-pyruvate (2.5 mM; Sigma).
Electrophysiological recordings were conducted at room temperature. Oocyte resting membrane potential was measured in ND-96 using 30-80 M.OMEGA. glass microelectrodes filled with 3M KCl For two-microelectrode voltage-clamp recordings, the voltage-measuring pipette had resistances of 1.5 to 2.0 M.OMEGA., while the current-injection pipette had resistances of 0.7-0.9 M.OMEGA.; both pipettes were filled with 3M KCl. All voltage-clamp recordings were conducted in bath solutions containing 1 mM MgCl2, 0.3 mM CaCl2, and 5 mM HEPES. For experiments conducted in 50 mM K^+, the solution contained 50 mM KCl and 50 mM NaCl. For lower potassium concentrations, this solution was mixed with an identical solution in which choline was substituted for potassium. Pairs of solutions at pH 5.4 and 8.4, containing 50 mM KCl and either 50 mM potassium-acetate or 50 mM potassium-hydrogen phthalate (biphthalate; Sigma, St. Louis, Mo.) were mixed to vary pH.
Two-microelectrode, voltage-clamp recordings were conducted using the GeneClamp 500 (Axon Instruments, La Jolla, Calif.) interfaced with a 486 Computer running the PCLAMP 6.0 (Axon Instruments, La Jolla, Calif.) suite of programs. Currents were filtered at 2 kHz and sampled every 100 μs. Current amplitude was measured during the last 4 ms of a 400 ms test pulse. Data were analyzed and plotted using PCLAMP 6.0 and SIGMA PLOT 5.0 (Jandel Scientific, San Rafael, Calif.). Statistical significance was determined by the Student's T-test.

Compound: [Cs+] [Cs^+]
inhibition of KIRK 2 current (KIRK 2 channel): reversible and voltage-dependent
effectiveness of block of KIRK 2 compared with Ba^2+ (KIRK 2 channel; apparent only at the most negative potentials tested, n=6, data not shown): far less effective than block by Ba^2+

Compound: [Ba+2] [Ba^2+]
fraction of the transmembrane electric field sensed by the binding site (Woodhull equation fit of Ki versus membrane potential) (KIRK 2 channel; Ki values at holding potentials -120, -80 and -40 mV): 46%
inhibition of KIRK 2 current (KIRK 2 channel): reversible, concentrationdependent inhibition
Hill coefficient of logistic fit of concentration-dependence of KIRK 2 inhibition (KIRK 2 channel; three holding potentials (-120, -80, -40 mV), n=8): 2

whole-cell current at a holding potential of -160 mV in Xenopus oocytes, two-microelectrode voltage clamp (KIRK 1 (ROMK channel)): 54%
Compound: KIRK-3 (human kidney inward rectifier K channel 3)
